According to patent publication US9617264B2, “2,7-diazaspiro[3.5]nonane compounds” (REMYND NV, priority 2014, dated 2017):

test system: INS-1E cells; assay: Cytokine-induced apoptosis (caspase-3/7 activation, Caspase-Glo 3/7) in INS-1E rat insulinoma cells; type: cell-based; settings: cytokine mix (IFN-γ, IL-1, TNF-α), 24 hours, caspase 3/7 activity, read-out: CYT EC50
Description: The INS-1E cell line, a rat insulinoma cell line, has been characterized extensively. INS-1E cells respond to glucose by secreting insulin and, unlike most other immortalized n-cell lines, they do this in a consistent manner over time. The cells are sensitive to hyperglycemia-, free fatty acid (FFA)-, and cytokine-induced stress. Prolonged stress ultimately leads to induction of apoptotic pathways and, if stress is not counter-acted, to apoptosis. Caspase-3 and -7 play a central role downstream where various apoptotic pathways merge. As such, activation (i.e. cleavage) of these caspases forms a relevant primary read-out to evaluate protective activity of compounds against stress-induced apoptosis.
To evaluate the efficacy of different compounds to prevent induction of apoptosis, an in vitro screen was developed in which INS-1E cells were exposed to a cytokine mix (IFN-γ, 5 ng/ml; IL-1, 20 pg/ml; TNF-α, 0.25 ng/ml). The degree of induction of apoptosis was evaluated using a substrate for cleaved caspase-3 and -7, i.e. a proluminescent caspase-3/7 DEVD aminoluciferin substrate with a thermostable luciferase (Caspase-Glo® 3/7 assay; Promega, cat. G8092).
On day 0, INS-1E cells were plated in a white-walled 96-well microplate (Greiner, cat. 655098) at 20,000 cells per well in 100 μl complete medium (RPMI containing 11 mM glucose supplemented with 5% FCS, 100 IU/ml penicillin, 100 μg/ml streptomycin, 10 mM HEPES, 1 mM Sodium Pyruvate and 50 μM 2-Mercapto-ethanol). On day 2, 100 μl medium containing cytokines and compound dissolved in DMSO was added to the cells. Wells without cytokines containing DMSO and wells with cytokines and DMSO were included to evaluate the degree of caspase 3/7 activation by the cytokine mix. After 24 hours exposure to cytokines and/or compound, Caspase-Glo® 3/7 reagent was added to the cells and caspase activity was determined by measuring luminescence.
To evaluate compound efficacy, the “toxicity window” was calculated by subtracting caspase activity of wells without stressor from activity of wells with stressor but without compound. The amount of caspase activity in the latter wells was normalized to 1 and used as reference. Subsequently, caspase activity in the wells with stressor and varying concentrations of compound was calculated relative to the wells without compound. Plotting caspase activity vs the log 10 of the concentration of compound permitted calculation of the EC50 values for the compounds which typically lied between 0.0001 and 10 μM. Compounds with an EC50<10 μM were considered active.

SMILES	EC50 [nM]
COc1ccc(S(=O)(=O)N2CCC3(CC2)CN(C(=O)C(C)(C)c2ccccc2C)C3)cc1 [Cmpd020, 1-(7-((4-Methoxyphenyl)sulfonyl)-2,7-diazaspiro[3.5]nonan-2-yl)-2-methyl-2-(o-tolyl)propan-1-one]	43
COc1ccc(S(=O)(=O)N2CCC3(CC2)CN(c2nc(-c4cnccn4)ns2)C3)cc1 [Cmpd038, 5-(7-((4-Methoxyphenyl)sulfonyl)-2,7-diazaspiro[3.5]nonan-2-yl)-3-(pyrazin-2-yl)-1,2,4-thiadiazole]	317
O=S(=O)(c1ccc(OC(F)F)cc1)N1CCC2(CC1)CN(S(=O)(=O)c1ccc(F)cc1)C2 [Cmpd044, 7-((4-(Difluoromethoxy)phenyl)sulfonyl)-2-((4-fluorophenyl)sulfonyl)-2,7-diazaspiro[3.5]nonane]	188
COc1ccc(S(=O)(=O)N2CCC3(CC2)CN(C(=O)C2CCOc4ccccc42)C3)cc1 (stereo not drawn) [Cmpd021, Chroman-4-yl(7-((4-methoxyphenyl)sulfonyl)-2,7-diazaspiro[3.5]nonan-2-yl)methanone]	503
COc1ccc(S(=O)(=O)N2CCC3(CC2)CN(C(=O)Cc2ccc(F)cc2)C3)cc1 [Cmpd006, 2-(4-Fluorophenyl)-1-(7-((4-methoxyphenyl)sulfonyl)-2,7-diazaspiro[3.5]nonan-2-yl)ethanone]	178
O=S(=O)(c1ccc(OC(F)F)cc1)N1CCC2(CC1)CN(S(=O)(=O)c1ccc(OC(F)F)cc1)C2 [Cmpd048, 2,7-Bis((4-(difluoromethoxy)phenyl)sulfonyl)-2,7-diazaspiro[3.5]nonane]	61
CCOc1ccc(S(=O)(=O)N2CC3(CCN(S(=O)(=O)c4ccc(OC(F)F)cc4)CC3)C2)cc1 [Cmpd042, 7-((4-(Difluoromethoxy)phenyl)sulfonyl)-2-((4-ethoxyphenyl)sulfonyl)-2,7-diazaspiro[3.5]nonane]	41
COc1ccc(S(=O)(=O)N2CCC3(CC2)CN(c2nc(-c4ccc(Cl)cc4)ns2)C3)cc1 [Cmpd039, 3-(4-Chlorophenyl)-5-(7-((4-methoxyphenyl)sulfonyl)-2,7-diazaspiro[3.5]nonan-2-yl)-1,2,4-thiadiazole]	100
CCOc1ccc(S(=O)(=O)N2CCC3(CC2)CN(S(=O)(=O)c2ccc(OC(F)F)cc2)C3)cc1 [Cmpd049, 2-((4-(Difluoromethoxy)phenyl)sulfonyl)-7-((4-ethoxyphenyl)sulfonyl)-2,7-diazaspiro[3.5]nonane]	90
COc1ccc(S(=O)(=O)N2CC3(CCN(S(=O)(=O)c4ccc(Cl)cc4)CC3)C2)cc1 [Cmpd047, 7-((4-Chlorophenyl)sulfonyl)-2-((4-methoxyphenyl)sulfonyl)-2,7-diazaspiro[3.5]nonane]	14
COc1ccc(S(=O)(=O)N2CCC3(CC2)CN(S(=O)(=O)c2ccc(OC(F)F)cc2)C3)cc1 [Cmpd003, 2-((4-(Difluoromethoxy)phenyl)sulfonyl)-7-((4-methoxyphenyl)sulfonyl)-2,7-diazaspiro[3.5]nonane]	40
O=S(=O)(c1ccc(OC(F)F)cc1)N1CCC2(CC1)CN(S(=O)(=O)c1ccc(Cl)cc1)C2 [Cmpd043, 2-((4-Chlorophenyl)sulfonyl)-7-((4-(difluoromethoxy)phenyl)sulfonyl)-2,7-diazaspiro[3.5]nonane]	86
COc1ccc(S(=O)(=O)N2CCC3(CC2)CN(C(=O)Cc2ccccc2)C3)cc1 [Cmpd010, 1-(7-((4-Methoxyphenyl)sulfonyl)-2,7-diazaspiro[3.5]nonan-2-yl)-2-phenylethanone]	178
O=S(=O)(c1ccc(Cl)cc1)N1CCC2(CC1)CN(S(=O)(=O)c1ccc(OC(F)F)cc1)C2 [Cmpd050, 7-((4-Chlorophenyl)sulfonyl)-2-((4-(difluoromethoxy)phenyl)sulfonyl)-2,7-diazaspiro[3.5]nonane]	103
O=S(=O)(c1ccc(F)cc1)N1CCC2(CC1)CN(S(=O)(=O)c1ccc(OC(F)F)cc1)C2 [Cmpd051, 2-((4-(Difluoromethoxy)phenyl)sulfonyl)-7-((4-fluorophenyl)sulfonyl)-2,7-diazaspiro[3.5]nonane]	33

test system: M17_3SYN cells; assay: Paraquat-induced cytotoxicity (LDH) in α-synuclein over-expressing M17_3SYN neuroblastoma cells; type: cell-based; settings: Homo sapiens, Neuroblastoma cell, 48 h, 6 mM Paraquat, 2 days, LDH toxicity inhibition, read-out: SYN EC50
Description: A α-synuclein expression plasmid was constructed by subcloning the NcoI/XhoI fragment from 212T-SYN(WT) (Griffioen et al., Biochem Biophys Acta (2006) 1762(3):312-318) containing the cDNA of human wild type α-synuclein correspondingly into a standard mammalian expression vector pcDNA3.1 resulting in plasmid pcDNA3.1-SYNwt. Plasmids pcDNA3.1 and pcDNA3.1-SYNwt were transfected into human neuroblastoma cells (BE-M17; ATCC No. CRL-2267™) using lipofectamine reagent and subsequently, independent clonal cell lines with the plasmids stably integrated into the genome were selected by antibiotic resistance selection (Geneticin (G418)), resulting in cell lines M17.pcDNA3 and M17_3SYN. Overexpression of α-synuclein in the M17_3SYN cell line was confirmed by Western blot analysis.
Due to the high levels of α-synuclein, M17_3SYN cells were sensitive to paraquat, a well-known risk factor Parkinson's disease and of synuclein-dependent neuronal degeneration. Cytotoxicity of cells was measured by quantification of lactate dehydrogenase (LDH) levels. In dead cells, LDH leaked out of the cells into the medium due to a loss of plasma-membrane integrity.
Three days preceding the experiment, primary pre-cultures of M17.pcDNA3 (as possible control) and M17_3SYN cells were prepared, starting from a stock culture, at a density of 20.000-40.000 cells/cm2 in culture medium (Opti-MEM® Reduced Serum Medium with Phenol Red (Invitrogen, Cat. 31985-047) supplemented with 10% FCS, 1 mM sodium pyruvate, 1×NEAA, 500 μg/ml G418 and 0.5× antibiotic/antimycotic (ABAM)). 3 days later these primary pre-cultures were used as a starting point to make secondary pre-cultures at a density of 50.000-100.000 cells/cm^2. At the day of the experiment these secondary precultures were diluted to ˜0.5·10^6 cells/ml in detection medium (Opti-MEM® Reduced-Serum Medium without Phenol Red (Invitrogen, Cat. 11085-021) supplemented with 10% FCS, 1 mM sodium pyruvate, 1×NEAA, 500 μg/ml G418 and 0.5×ABAM) and 60 μL of this suspension was dispensed per well into a 96-well microtiter plate. After 3 hours of incubation at 37° C./5% CO2 an equal volume of detection medium containing a final concentration of 6 mM Paraquat was added and subsequently incubated for 2 days at 37° C./5% CO2. Then LDH activity was determined using the Promega Cytotox 96 Non-Radioactive cytotoxicity assay (Promega, Cat. G1780), according to the manufacturer's instructions. Cytotoxicity was defined as the ratio of LDH relative to the total LDH in the cells and supernatant.
The assay described above using the M17_3SYN cell line allowed screening compounds for their ability to decrease cytotoxicity in PQ-challenged cells. Compounds of the invention were tested for their ability to decrease toxicity at different concentrations, ranging from low non-effective concentrations to high effective concentrations. Afterwards, a dose-dependent inhibition curve was used to calculate the EC50. A compound was considered to be active in this test when it inhibited toxicity by more than 20% relative to untreated M17_3SYN cells at a concentration of […] or lower.

SMILES	EC50 [nM]
COc1ccc(S(=O)(=O)N2CCC3(CC2)CN(C(=O)C(C)(C)c2ccccc2C)C3)cc1 [Cmpd020, 1-(7-((4-Methoxyphenyl)sulfonyl)-2,7-diazaspiro[3.5]nonan-2-yl)-2-methyl-2-(o-tolyl)propan-1-one]	14.3
O=S(=O)(c1c(F)cccc1F)N1CCC2(CC1)CN(c1nc(Cc3ccc(F)cc3)ns1)C2 [Cmpd074, 5-(7-((2,6-Difluorophenyl)sulfonyl)-2,7-diazaspiro[3.5]nonan-2-yl)-3-(4-fluorobenzyl)-1,2,4-thiadiazole]	260
O=S(=O)(CC1CCCCC1)N1CCC2(CC1)CN(c1nc(Cc3ccc(F)cc3)ns1)C2 [Cmpd097, 5-(7-((Cyclohexylmethyl)sulfonyl)-2,7-diazaspiro[3.5]nonan-2-yl)-3-(4-fluorobenzyl)-1,2,4-thiadiazole]	190
COc1cccc(S(=O)(=O)N2CCC3(CC2)CN(c2nc(Cc4ccc(F)cc4)ns2)C3)c1 [Cmpd076, 3-(4-Fluorobenzyl)-5-(7-((3-methoxyphenyl)sulfonyl)-2,7-diazaspiro[3.5]nonan-2-yl)-1,2,4-thiadiazole]	394
O=S(=O)(c1cccc(F)c1)N1CCC2(CC1)CN(c1nc(Cc3ccc(F)cc3)ns1)C2 [Cmpd071, 3-(4-Fluorobenzyl)-5-(7-((3-fluorophenyl)sulfonyl)-2,7-diazaspiro[3.5]nonan-2-yl)-1,2,4-thiadiazole]	441
COc1ccc(S(=O)(=O)N2CCC3(CC2)CN(c2nc(Cc4ccc(F)c(F)c4)ns2)C3)cc1 [Cmpd033, 3-(3,4-Difluorobenzyl)-5-(7-((4-methoxyphenyl)sulfonyl)-2,7-diazaspiro[3.5]nonan-2-yl)-1,2,4-thiadiazole]	332
O=S(=O)(c1cccc(C(F)(F)F)c1)N1CCC2(CC1)CN(c1nc(Cc3ccc(F)cc3)ns1)C2 [Cmpd064, 3-(4-Fluorobenzyl)-5-(7-((3-(trifluoromethyl)phenyl)sulfonyl)-2,7-diazaspiro[3.5]nonan-2-yl)-1,2,4-thiadiazole]	1070
CCOc1ccc(S(=O)(=O)N2CCC3(CC2)CN(S(=O)(=O)c2ccc(OC)cc2)C3)cc1 [Cmpd046, 7-((4-Ethoxyphenyl)sulfonyl)-2-((4-methoxyphenyl)sulfonyl)-2,7-diazaspiro[3.5]nonane]	3.3
COc1ccc(S(=O)(=O)N2CCC3(CC2)CN(c2nc(Cc4ccc(Cl)cc4)ns2)C3)cc1 [Cmpd032, 3-(4-Chlorobenzyl)-5-(7-((4-methoxyphenyl)sulfonyl)-2,7-diazaspiro[3.5]nonan-2-yl)-1,2,4-thiadiazole]	170
